In PubChem BioAssay (NCI):
Values joined by “and” are separate entries in the source; they are usually repeats but may differ in a detail not shown here. Equal entries are not always repeated.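 Exposure lasted 48 hours, with cells grown in 96-well plates and compounds tested at five concentrations. GI50 is the concentration that inhibits growth by half. TGI marks complete inhibition of growth.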

Columns and labels:
Test in all cases: NCI tumour cell line growth inhibition, 48 h
786-0 renal = tested on: 786-0 renal
A498 renal = tested on: A498 renal
A549 NSCLC = tested on: A549 NSCLC
ACHN renal = tested on: ACHN renal
BT-549 breast = tested on: BT-549 breast
CAKI-1 renal = tested on: CAKI-1 renal
CCRF-CEM leukemia = tested on: CCRF-CEM leukemia
COLO 205 colon = tested on: COLO 205 colon
DU-145 prostate = tested on: DU-145 prostate
EKVX NSCLC = tested on: EKVX NSCLC
HCC-2998 colon = tested on: HCC-2998 colon
HCT-116 colon = tested on: HCT-116 colon
HCT-15 colon = tested on: HCT-15 colon
HL-60(TB) leukemia = tested on: HL-60(TB) leukemia
HOP-62 NSCLC = tested on: HOP-62 NSCLC
HOP-92 NSCLC = tested on: HOP-92 NSCLC
HS 578T breast = tested on: HS 578T breast
HT29 colon = tested on: HT29 colon
IGROV1 ovarian = tested on: IGROV1 ovarian
K-562 leukemia = tested on: K-562 leukemia
KM12 colon = tested on: KM12 colon
LOX IMVI melanoma = tested on: LOX IMVI melanoma
M14 melanoma = tested on: M14 melanoma
MALME-3M melanoma = tested on: MALME-3M melanoma
MCF7 breast = tested on: MCF7 breast
MDA-MB-231 breast = tested on: MDA-MB-231 breast
MDA-MB-435 = tested on: MDA-MB-435
MOLT-4 leukemia = tested on: MOLT-4 leukemia
NCI-H226 lung = tested on: NCI-H226 lung
NCI-H23 lung = tested on: NCI-H23 lung
NCI-H460 lung = tested on: NCI-H460 lung
NCI-H522 lung = tested on: NCI-H522 lung
NCI/ADR-RES ovarian = tested on: NCI/ADR-RES ovarian
OVCAR-3 ovarian = tested on: OVCAR-3 ovarian
OVCAR-4 ovarian = tested on: OVCAR-4 ovarian
OVCAR-5 ovarian = tested on: OVCAR-5 ovarian
OVCAR-8 ovarian = tested on: OVCAR-8 ovarian
PC-3 prostate = tested on: PC-3 prostate
RPMI-8226 leukemia = tested on: RPMI-8226 leukemia
RXF 393 renal = tested on: RXF 393 renal
SF-268 CNS = tested on: SF-268 CNS
SF-295 CNS = tested on: SF-295 CNS
SF-539 CNS = tested on: SF-539 CNS
SK-MEL-2 melanoma = tested on: SK-MEL-2 melanoma
SK-MEL-28 melanoma = tested on: SK-MEL-28 melanoma
SK-MEL-5 melanoma = tested on: SK-MEL-5 melanoma
SK-OV-3 ovarian = tested on: SK-OV-3 ovarian
SN12C renal = tested on: SN12C renal
SNB-19 CNS = tested on: SNB-19 CNS
SNB-75 CNS = tested on: SNB-75 CNS
SR leukemia = tested on: SR leukemia
SW-620 colon = tested on: SW-620 colon
T-47D breast = tested on: T-47D breast
TK-10 renal = tested on: TK-10 renal
U251 CNS = tested on: U251 CNS
UACC-257 melanoma = tested on: UACC-257 melanoma
UACC-62 melanoma = tested on: UACC-62 melanoma
UO-31 renal = tested on: UO-31 renal

CC1CCCc2sc3nc(NNC(=O)c4cnccn4)n(-c4ccccc4)c(=O)c3c21 (stereo not given)
GI50 (786-0 renal): 0.508 µM and 0.274 µM | TGI (786-0 renal): 12.4 µM and 5.43 µM | GI50 (A498 renal): 2.62 µM and 0.688 µM | TGI (A498 renal): 8.54 µM and 4.44 µM | GI50 (A549 NSCLC): 0.367 µM and 0.262 µM | TGI (A549 NSCLC): 22.4 µM and 16.2 µM | GI50 (ACHN renal): 0.331 µM and 0.217 µM | TGI (ACHN renal): 18.7 µM and 13.1 µM | GI50 (BT-549 breast): 0.813 µM and 0.472 µM | TGI (BT-549 breast): 28.6 µM and 12.4 µM | GI50 (CAKI-1 renal): 0.559 µM and 0.334 µM | TGI (CAKI-1 renal): > 54.4 µM and 9.23 µM | GI50 (CCRF-CEM leukemia): 0.295 µM and 0.169 µM | TGI (CCRF-CEM leukemia): > 100 µM | GI50 (COLO 205 colon): 0.327 µM and 0.284 µM | TGI (COLO 205 colon): 3.52 µM and 25 µM | GI50 (DU-145 prostate): 0.598 µM and 0.339 µM | TGI (DU-145 prostate): > 39.8 µM and 18.9 µM | GI50 (EKVX NSCLC): 0.383 µM and 0.258 µM | TGI (EKVX NSCLC): > 100 µM | GI50 (HCC-2998 colon): 0.55 µM and 0.324 µM | TGI (HCC-2998 colon): 26.3 µM and 16.3 µM | GI50 (HCT-116 colon): 0.338 µM and 0.264 µM | TGI (HCT-116 colon): 14 µM and 13.4 µM | GI50 (HCT-15 colon): 0.237 µM and 0.0717 µM | TGI (HCT-15 colon): 34.4 µM and 17.6 µM | GI50 (HL-60(TB) leukemia): 0.367 µM and 0.279 µM | TGI (HL-60(TB) leukemia): 2.75 µM and 0.908 µM | GI50 (HOP-62 NSCLC): 0.385 µM and 0.203 µM | TGI (HOP-62 NSCLC): > 100 µM | GI50 (HOP-92 NSCLC): 0.996 µM and 0.397 µM | TGI (HOP-92 NSCLC): 21.8 µM and 16.6 µM | GI50 (HS 578T breast): 3.46 µM and 2.79 µM | TGI (HS 578T breast): > 74.6 µM and 87.3 µM | GI50 (HT29 colon): 0.975 µM and 0.461 µM | TGI (HT29 colon): 49 µM and 17.6 µM | GI50 (IGROV1 ovarian): 0.327 µM and 0.172 µM | TGI (IGROV1 ovarian): 16.9 µM and 13.3 µM | GI50 (K-562 leukemia): 0.454 µM and 0.399 µM | TGI (K-562 leukemia): > 100 µM | GI50 (KM12 colon): 0.428 µM and 0.347 µM | TGI (KM12 colon): > 49.1 µM and 32.5 µM | GI50 (LOX IMVI melanoma): 0.259 µM and 0.195 µM | TGI (LOX IMVI melanoma): 3.8 µM and 8.06 µM | GI50 (M14 melanoma): 0.321 µM and 0.205 µM | TGI (M14 melanoma): 5.44 µM and 2.65 µM | GI50 (MALME-3M melanoma): 0.657 µM and 0.345 µM | TGI (MALME-3M melanoma): 11.6 µM and 11.1 µM | GI50 (MCF7 breast): 0.325 µM and 0.238 µM | TGI (MCF7 breast): > 79.3 µM and 14.4 µM | GI50 (MDA-MB-231 breast): 0.425 µM and 0.328 µM | TGI (MDA-MB-231 breast): 13.4 µM and 13.5 µM | GI50 (MDA-MB-435): 0.7 µM and 0.556 µM | TGI (MDA-MB-435): 25.1 µM and > 40.8 µM | GI50 (MOLT-4 leukemia): 0.343 µM and 0.256 µM | TGI (MOLT-4 leukemia): > 100 µM | GI50 (NCI-H226 lung): 0.634 µM and 0.277 µM | TGI (NCI-H226 lung): 9.6 µM and 5.75 µM | GI50 (NCI-H23 lung): 0.871 µM and 0.465 µM | TGI (NCI-H23 lung): > 100 µM and 26.5 µM | GI50 (NCI-H460 lung): 0.25 µM and 0.121 µM | TGI (NCI-H460 lung): 11.4 µM and 2.27 µM | GI50 (NCI-H522 lung): 0.392 µM and 0.327 µM | TGI (NCI-H522 lung): 10.2 µM and 16.6 µM | GI50 (NCI/ADR-RES ovarian): 0.38 µM and 0.232 µM | GI50 (OVCAR-3 ovarian): 0.288 µM and 0.249 µM | TGI (OVCAR-3 ovarian): 22.2 µM and 12.5 µM | GI50 (OVCAR-4 ovarian): 0.211 µM and 0.215 µM | TGI (OVCAR-4 ovarian): > 100 µM | GI50 (OVCAR-5 ovarian): 0.656 µM and 0.371 µM | TGI (OVCAR-5 ovarian): 30.9 µM and 33.6 µM | GI50 (OVCAR-8 ovarian): 0.346 µM and 0.333 µM | TGI (OVCAR-8 ovarian): > 93.2 µM | GI50 (PC-3 prostate): 0.499 µM and 0.385 µM | TGI (PC-3 prostate): 22.2 µM and 26.6 µM | GI50 (RPMI-8226 leukemia): 0.563 µM and 0.277 µM | TGI (RPMI-8226 leukemia): 17.9 µM and 16.6 µM | GI50 (RXF 393 renal): 0.955 µM and 0.454 µM | TGI (RXF 393 renal): 5.48 µM and 3.84 µM | GI50 (SF-268 CNS): 0.346 µM and 0.207 µM | TGI (SF-268 CNS): > 100 µM | GI50 (SF-295 CNS): 0.479 µM and 0.159 µM | TGI (SF-295 CNS): 15.4 µM and 7.81 µM | GI50 (SF-539 CNS): 0.658 µM and 0.328 µM | TGI (SF-539 CNS): 10.3 µM and 4.32 µM | GI50 (SK-MEL-2 melanoma): 1.05 µM and 0.705 µM | TGI (SK-MEL-2 melanoma): 19.4 µM and 19.8 µM | GI50 (SK-MEL-28 melanoma): 0.485 µM and 0.378 µM | TGI (SK-MEL-28 melanoma): 19.8 µM and 32.5 µM | GI50 (SK-MEL-5 melanoma): 0.371 µM and 0.205 µM | TGI (SK-MEL-5 melanoma): 1.81 µM and 0.933 µM | GI50 (SK-OV-3 ovarian): 0.489 µM and 0.544 µM | TGI (SK-OV-3 ovarian): 8.42 µM and 8.2 µM | GI50 (SN12C renal): 0.468 µM and 0.368 µM | TGI (SN12C renal): 15.9 µM and 13.7 µM | GI50 (SNB-19 CNS): 0.389 µM and 0.34 µM | TGI (SNB-19 CNS): > 100 µM | GI50 (SNB-75 CNS): 1.06 µM and 0.899 µM | TGI (SNB-75 CNS): 38.7 µM and > 50 µM | GI50 (SR leukemia): 0.361 µM and 0.11 µM | TGI (SR leukemia): > 32.6 µM | GI50 (SW-620 colon): 0.483 µM and 0.463 µM | TGI (SW-620 colon): > 100 µM | GI50 (T-47D breast): 0.52 µM and 0.397 µM | TGI (T-47D breast): > 100 µM | GI50 (TK-10 renal): 0.686 µM and 0.329 µM | TGI (TK-10 renal): > 83 µM | GI50 (U251 CNS): 0.26 µM and 0.182 µM | TGI (U251 CNS): > 40.8 µM and 30.1 µM | GI50 (UACC-257 melanoma): 0.54 µM and 0.365 µM | TGI (UACC-257 melanoma): 6.98 µM and 3.86 µM | GI50 (UACC-62 melanoma): 0.296 µM and 0.258 µM | TGI (UACC-62 melanoma): 2.2 µM and 1.11 µM | GI50 (UO-31 renal): 0.214 µM and 0.151 µM | TGI (UO-31 renal): 6.47 µM and 2.96 µM
